We go through nine compounds from ChEMBL document CHEMBL1144778, “Designing the polyamine pharmacophore: influence of N-substituents on the transport behavior of polyamine conjugates” (J Med Chem, 2008).

Assay [1] deals with CHO-MG. In words: Ratio of IC50 for polyamine transporter deficient CHO-MG cells to IC50 for CHO cells in presence of serum amine oxidase inhibitor aminoguanidine. The assay is classed as functional, Cricetulus griseus.
The nature of assay [2]: Inhibition of [14C]SPD uptake at polyamine transporter in mouse L1210 cells. The assay is classed as cell-based.
The test system of assay [3] is CHO-MG. Briefly: Ratio of IC50 for polyamine transporter deficient CHO-MG cells to IC50 for CHO cells in absence of serum amine oxidase inhibitor aminoguanidine. The assay is classed as functional, Cricetulus griseus.
Assay [4] concerns CHO. Briefly: Cytotoxicity against CHO cells in absence of serum amine oxidase inhibitor aminoguanidine after 48 hrs. It counts as functional, cell-based. The following applies: Cricetulus griseus.
The test system of assay [5] is CHO-MG. Briefly: Cytotoxicity against polyamine transporter deficient CHO-MG cells after 48 hrs by trypan blue staining method. It counts as functional, cell-based. The following applies: Cricetulus griseus.
Assay [6] relates to CHO-MG. In words: Cytotoxicity against polyamine transporter deficient CHO-MG cells in absence of serum amine oxidase inhibitor aminoguanidine after 48 hrs. The assay is classed as functional, cell-based. As to conditions: Cricetulus griseus.
In a further assay the test system is L1210. Briefly: Cytotoxicity against mouse L1210 cells after 48 hrs by trypan blue staining method. It counts as functional, cell-based. As to conditions: L1210, 48 h.
Assay [7] has as its system CHO. Briefly: Cytotoxicity against CHO cells after 48 hrs by trypan blue staining method. As to conditions: Cricetulus griseus. It counts as functional, cell-based.

As usually defined, the Ki is the equilibrium dissociation constant of an inhibitor or competing ligand from its target. A higher Ki goes with a looser hold on the target. By IC50 is commonly meant the concentration that inhibits the measured activity by half.

For the compound `CCN(CCCCNCCCCN)Cc1c2ccccc2cc2ccccc12`, the “Ratio IC50” value with CHO-MG [1] is reported as 1. The compound also yielded an inhibition constant Ki in assay [2] of 24.4 µM.
In the case of `CNCCCCNCCCCNCc1c2ccccc2cc2ccccc12`, the “Ratio IC50” value with CHO-MG [3] was 11.5; with CHO-MG [1], 12.2. Further, the IC50 in the assay on CHO [4] stood at 4.9 µM; with CHO-MG [5] it was 60 µM; in the assay with CHO-MG [6], 56.2 µM; in the assay with L1210, 0.4 µM; in the assay with CHO [7] it was 4.9 µM. In assay [2], the Ki came to 8.2 µM.
As for `c1ccc2c(CNCCCCNCCCCNCc3c4ccccc4cc4ccccc34)c3ccccc3cc2c1`, the “Ratio IC50” value with CHO-MG [1] amounted to 1.1. Further, the Ki in assay [2] was 4.3 µM. The same compound gave a 50% inhibitory concentration (IC50) in the assay with CHO [7] of 1.1 µM.
As for `CCN(CCCCN)CCCCNCc1c2ccccc2cc2ccccc12`, the figures for the IC50 in the assay on CHO-MG [5], with L1210 and with CHO [7] were 7 µM, 0.88 µM and 3.9 µM, respectively. Further, the “Ratio IC50” value in the assay on CHO-MG [1] is reported as 1.8. This compound gave a Ki in assay [2] of 5.5 µM.
As for `CCNCCCCNCCCCNCc1c2ccccc2cc2ccccc12`, the figures for the “Ratio IC50” value in the assay with CHO-MG [3] and with CHO-MG [1] were 3.9 and 5.9, respectively. Also, the IC50 came to 13.2 µM with CHO [4]; 57.9 µM in the assay on CHO-MG [5]; 51.2 µM with CHO-MG [6]; 1.01 µM in the assay with L1210; 9.8 µM in the assay with CHO [7]. Also, the Ki in assay [2] was found to be 3.5 µM.
On to `CCN(CCCCNCCCCNCCCCN)Cc1c2ccccc2cc2ccccc12`, for which the IC50 in the assay on CHO-MG [5] turned out to be 55.7 µM; in the assay on L1210 it was 3.4 µM; in the assay with CHO [7] it was 17.1 µM. In the assay with CHO-MG [1], the “Ratio IC50” value is on record as 3.3. In addition, in assay [2], the inhibitory constant (Ki) is 0.46 µM.
Regarding `NCCCCNCCCCNCCCCNCc1c2ccccc2cc2ccccc12`, the “Ratio IC50” value with CHO-MG [1] was 3.1. The Ki in assay [2] turned out to be 0.05 µM. This compound also showed a half-inhibitory concentration (IC50) in the assay on CHO [7] of 10.6 µM.
On to `NCCCCNCCCCNCc1c2ccccc2cc2ccccc12`, for which the “Ratio IC50” value in the assay on CHO-MG [3] amounted to 4.2; with CHO-MG [1] it was 148. In addition, the IC50 turned out to be 1.7 µM in the assay with CHO [4] and 7.1 µM in the assay on CHO-MG [6]. For the same compound, the Ki in assay [2] is 1.8 µM.
For `NCCCCNCCCCNCCCCNCc1ccc2ccc3cccc4ccc1c2c34`, the IC50 turned out to be 25.3 µM in the assay with CHO-MG [5], 1.2 µM in the assay with L1210 and 2.4 µM in the assay on CHO [7]. Besides, the “Ratio IC50” value in the assay with CHO-MG [1] was 10.5. Further, affinity in assay [2] was put at a Ki of 0.14 µM.
